This note sets out measurements from US12577234B2, “Antagonists of the muscarinic acetylcholine receptor M4” (Vanderbilt University, priority 2017, dated 2026).

For the test, the target named is T1, human mAChR M4 (Homo sapiens, UniProt P08173).
T1 construct: expressed in transfected cells; host or cells: CHO-K1 (ATCC), stably co-expressing chimeric G protein Gqi5
T1 sequence (P08173 1-479): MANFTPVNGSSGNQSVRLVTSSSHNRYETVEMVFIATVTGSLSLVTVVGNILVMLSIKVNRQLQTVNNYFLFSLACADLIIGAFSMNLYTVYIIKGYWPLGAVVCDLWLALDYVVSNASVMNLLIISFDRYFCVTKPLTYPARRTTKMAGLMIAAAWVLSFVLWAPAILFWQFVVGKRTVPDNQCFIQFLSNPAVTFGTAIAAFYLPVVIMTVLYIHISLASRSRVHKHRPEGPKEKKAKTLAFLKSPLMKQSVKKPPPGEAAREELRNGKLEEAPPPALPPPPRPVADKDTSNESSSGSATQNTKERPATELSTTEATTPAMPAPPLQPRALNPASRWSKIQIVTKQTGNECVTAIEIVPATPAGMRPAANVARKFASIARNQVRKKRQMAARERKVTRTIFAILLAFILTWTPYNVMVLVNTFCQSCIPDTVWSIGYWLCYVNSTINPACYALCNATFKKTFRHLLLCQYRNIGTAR
The test is described as follows: mAChR M4 cell-based functional assay (calcium mobilization, EC80 acetylcholine), human M4. As to conditions: for IC50: M4/Gqi5/CHO-K1 cells, decrease of EC80 acetylcholine response; for Emin: human M4, % ACh maximum at 30 μM. In short, it runs like this: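 CHO-K1 cells stably expressing human M4 with chimeric Gqi5; intracellular calcium rise read on FDSS as fluorescence static ratio at 1 Hz. Compounds in 10-point 1:3 dilution series; IC50 taken as concentration-dependent decrease of the EC80 acetylcholine response, four-parameter logistic fit.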
For orientation: Calcium flux is commonly read through the fluorescence of an indicator in the cells.

As usually defined, the IC50 is the concentration needed to halve the response being measured. For `Cc1nn(C)cc1-c1ccc(OCC2C[C@@H]3CN(Cc4ccccc4F)C[C@@H]3C2)nn1` (stereo partly drawn) [Compound 101, (3aR,6aS)-5-[[6-(1,3-dimethylpyrazol-4-yl)pyridazin-3-yl]oxymethyl]-2-[(2-fluorophenyl)methyl]-3,3a,4,5,6,6a-hexahydro-1H-cyclopenta[c]pyrrole], for the setting “Table 9”, the IC50 worked out at 2540 nM and the Emin is reported as 6.60%.
The matching figures for `Cc1cnn(C)c1-c1ccc(NCCC2C[C@@H]3CN(CC4CC5C=CC4C5)C[C@@H]3C2)nn1` (stereo partly drawn) [Compound 123, N-[2-[(3aR,6aS)-2-(5-bicyclo[2.2.1]hept-2-enylmethyl)-3,3a,4,5,6,6a-hexahydro-1H-cyclopenta[c]pyrrol-5-yl]ethyl]-6-(2,4-dimethylpyrazol-3-yl)pyridazin-3-amine]: 6.2 nM and 2.16%.
For `Cc1nn(C)cc1-c1ccc(N[C@H]2C[C@@H]3CN(CC45CC6CC(CC(C6)C4)C5)C[C@@H]3C2)nc1` [Compound 150, (3aR,5s,6aS)-2-(1-adamantylmethyl)-N-[5-(1,3-dimethylpyrazol-4-yl)-2-pyridyl]-3,3a,4,5,6,6a-hexahydro-1H-cyclopenta[c]pyrrol-5-amine], for the setting “Table 10”, the “Human M4 Emin” value came out at 3% and the IC50 was determined as 161 nM.
Turning to `CC(=O)Nc1ccc(-c2ccc(N[C@@H]3C[C@@H]4CN(CCC(C)(C)C)C[C@@H]4C3)nn2)cc1` [Compound 39, N-[4-[6-[[(3aR,5r,6aS)-2-(3,3-Dimethylbutyl)-3,3a,4,5,6,6a-hexahydro-1H-cyclopenta[c]pyrrol-5-yl]amino]pyridazin-3-yl]phenyl]acetamide], where the note is “Table 9”, the IC50 was 8280 nM and the Emin stood at 26.8%.
With `c1cnc2ccc(-c3ccc(N[C@H]4C[C@@H]5CN(CC6CCOCC6)C[C@@H]5C4)nn3)cc2c1` [Compound 181, (3aR,5s,6aS)-N-[6-(6-quinolyl)pyridazin-3-yl]-2-(tetrahydropyran-4-ylmethyl)-3,3a,4,5,6,6a-hexahydro-1H-cyclopenta[c]pyrrol-5-amine], for the setting “Table 10”, the “Human M4 Emin” value was determined as 4% and the IC50 came out at 1.42 nM.
For `Cc1cccnc1CN1C[C@H]2CC(COc3ccc(-c4cn(C)nc4C)nn3)C[C@H]2C1` (stereo partly drawn) [Compound 104, (3aR,6aS)-5-[[6-(1,3-dimethylpyrazol-4-yl)pyridazin-3-yl]oxymethyl]-2-[(3-methyl-2-pyridyl)methyl]-3,3a,4,5,6,6a-hexahydro-1H-cyclopenta[c]pyrrole], where the note is “Table 9”, the IC50 is 1530 nM and the Emin was 6.78%.
Turning to `Fc1ccc(Cl)c(-c2ccc(N[C@H]3C[C@@H]4CN(Cc5cnccn5)C[C@@H]4C3)nn2)c1` [Compound 170, (3aR,5s,6aS)-N-[6-(2-chloro-5-fluoro-phenyl)pyridazin-3-yl]-2-(pyrazin-2-ylmethyl)-3,3a,4,5,6,6a-hexahydro-1H-cyclopenta[c]pyrrol-5-amine], under “Table 10”, the “Human M4 Emin” value turned out to be 5% and the IC50 turned out to be 54.3 nM.
Taken in the same sequence, the figures for `CS(=O)(=O)Nc1cccc(-c2ccc(N[C@H]3C[C@@H]4CN(CC5CCOCC5)C[C@@H]4C3)nn2)c1` [Compound 217, N-[3-[6-[[(3aR,5s,6aS)-2-(tetrahydropyran-4-ylmethyl)-3,3a,4,5,6,6a-hexahydro-1H-cyclopenta[c]pyrrol-5-yl]amino]pyridazin-3-yl]phenyl]methanesulfonamide] were 16% and 7.38 nM.
The matching figures for `Clc1ccccc1-c1ccc(N[C@H]2C[C@@H]3CN(CC4CCOCC4)C[C@@H]3C2)nn1` [Compound 205, (3aR,5s,6aS)-N-[6-(2-chlorophenyl)pyridazin-3-yl]-2-(tetrahydropyran-4-ylmethyl)-3,3a,4,5,6,6a-hexahydro-1H-cyclopenta[c]pyrrol-5-amine]: 4% and 0.365 nM.
For `CC(C)(C)CCN1C[C@H]2C[C@H](Nc3ccc(-c4cc(F)ccc4Cl)nn3)C[C@H]2C1` [Compound 28, (3aR,5s,6aS)-N-[6-(2-chloro-5-fluoro-phenyl)pyridazin-3-yl]-2-(3,3-dimethylbutyl)-3,3a,4,5,6,6a-hexahydro-1H-cyclopenta[c]pyrrol-5-amine], for the setting “Table 9”, the IC50 amounted to 10 nM and the Emin came to 3.53%.
The matching figures for “(3aR,6aS)-2-(5-bicyclo[2.2.2]oct-2-enylmethyl)-5-[[6-(1,3-dimethylpyrazol-4-yl)pyridazin-3-yl]oxymethyl]-3,3a,4,5,6,6a-hexahydro-1H-cyclopenta[clpyrrole [Compound 94]”: 42.6 nM and 3.67%.
On to `Cc1noc(C)c1-c1ccc(O[C@H]2C[C@@H]3CN(CCC(C)(C)C)C[C@@H]3C2)nn1` [Compound 136, 4-[6-[[(3aR,5s,6aS)-2-(3,3-dimethylbutyl)-3,3a,4,5,6,6a-hexahydro-1H-cyclopenta[c]pyrrol-5-yl]oxy]pyridazin-3-yl]-3,5-dimethyl-isoxazole], for which, where the note is “Table 10”, the “Human M4 Emin” value is recorded as 3% and the IC50 was 174 nM.
As for `Cc1nn(C)cc1-c1ccc(N[C@@H]2C[C@@H]3CN(CC45CC6CC(CC(C6)C4)C5)C[C@@H]3C2)c(F)c1F` [Compound 45, (3aR,5r,6aS)-2-(1-adamantylmethyl)-N-[4-(1,3-dimethylpyrazol-4-yl)-2,3-difluoro-phenyl]-3,3a,4,5,6,6a-hexahydro-1H-cyclopenta[c]pyrrol-5-amine], under “Table 9”, the IC50 worked out at 6590 nM and the Emin is 12.0%.
The matching figures for `Cc1cccnc1CN1C[C@H]2CC(COc3ccc(-c4c(C)cnn4C)nn3)C[C@H]2C1` (stereo partly drawn) [Compound 90, (3aR,6aS)-5-[[6-(2,4-dimethylpyrazol-3-yl)pyridazin-3-yl]oxymethyl]-2-[(3-methyl-2-pyridyl)methyl]-3,3a,4,5,6,6a-hexahydro-1H-cyclopenta[c]pyrrole]: 1430 nM and 7.98%.
Taken in the same sequence, the figures for `Cc1cnn(C)c1-c1ccc(OCC2C[C@@H]3CN(CC4CCCOC4)C[C@@H]3C2)nn1` (stereo partly drawn) [Compound 85, (3aR,6aS)-5-[[6-(2,4-dimethylpyrazol-3-yl)pyridazin-3-yl]oxymethyl]-2-(tetrahydropyran-3-ylmethyl)-3,3a,4,5,6,6a-hexahydro-1H-cyclopenta[c]pyrrole] were 4600 nM and 14.2%.
Taken in the same sequence, the figures for `Cc1nn(C)cc1-c1ccc(NC[C@H]2C[C@@H]3CN(CC4CCCCC4)C[C@@H]3C2)nn1` [Compound 72, N-[[(3aR,5s,6aS)-2-(cyclohexylmethyl)-3,3a,4,5,6,6a-hexahydro-1H-cyclopenta[c]pyrrol-5-yl]methyl]-6-(1,3-dimethylpyrazol-4-yl)pyridazin-3-amine] were 201 nM and 4.02%.
`Fc1ccc(Cl)c(-c2ccc(OCC3C[C@@H]4CN(Cc5ccc6c(c5)OCO6)C[C@@H]4C3)nn2)c1` (stereo partly drawn) [Compound 119, (3aR,6aS)-2-(1,3-benzodioxol-5-ylmethyl)-5-[[6-(2-chloro-5-fluoro-phenyl)pyridazin-3-yl]oxymethyl]-3,3a,4,5,6,6a-hexahydro-1H-cyclopenta[c]pyrrole]: where the note is “Table 9”, the IC50 is 668 nM and the Emin stood at 4.24%.
The matching figures for `Fc1ccc(Cl)c(-c2ccc(OCC3C[C@@H]4CN(CC5CC6C=CC5C6)C[C@@H]4C3)nn2)c1` (stereo partly drawn) [Compound 108, (3aR,6aS)-2-(5-bicyclo[2.2.1]hept-2-enylmethyl)-5-[[6-(2-chloro-5-fluoro-phenyl)pyridazin-3-yl]oxymethyl]-3,3a,4,5,6,6a-hexahydro-1H-cyclopenta[c]pyrrole]: 134 nM and 3.90%.
As to `CCn1ccc(-c2ccc(N[C@H]3C[C@@H]4CN(CC5CCOCC5)C[C@@H]4C3)nn2)n1` [Compound 228, (3aR,5s,6aS)-N-[6-(1-ethylpyrazol-3-yl)pyridazin-3-yl]-2-(tetrahydropyran-4-ylmethyl)-3,3a,4,5,6,6a-hexahydro-1H-cyclopenta[c]pyrrol-5-amine], where the note is “Table 10”, the “Human M4 Emin” value came to 28% and the IC50 is 38 nM.
Take `CC(C)(C)CCN1C[C@H]2CC(COc3ccc(-c4cc(F)ccc4Cl)nn3)C[C@H]2C1` (stereo partly drawn) [Compound 106, (3aR,6aS)-5-[[6-(2-chloro-5-fluoro-phenyl)pyridazin-3-yl]oxymethyl]-2-(3,3-dimethylbutyl)-3,3a,4,5,6,6a-hexahydro-1H-cyclopenta[c]pyrrole]: where the note is “Table 9”, the IC50 was determined as 143 nM and the Emin came to 3.60%.
Taken in the same sequence, the figures for `Cc1cnn(C)c1-c1ccc(N[C@H]2C[C@@H]3CN(Cc4ccccc4F)C[C@@H]3C2)nn1` [Compound 25, (3aR,5s,6aS)-N-[6-(2,4-dimethylpyrazol-3-yl)pyridazin-3-yl]-2-[(2-fluorophenyl)methyl]-3,3a,4,5,6,6a-hexahydro-1H-cyclopenta[c]pyrrol-5-amine] were 193 nM and 4.92%.
